Results taken from patent publication US20250382556A1, “MODULATION OF THE BRANCHED-CHAIN METABOLITE CONTENT OF FRUITS AND VEGETABLES” (BOARD OF TRUSTEES OF MICHIGAN STATE UNIVERSITY, priority 2024, published 2025).

System: ripe ‘Red Delicious’ apple fruit
Experiment: Precursor (isoleucine, α-ketoacid) content of ripe apple peel via derivatization and GCMS, time course
Type: in vivo, Malus x domestica Borkh.
Details: 1 mM rimsulfuron
Description: ‘Red Delicious’ apple fruit held in refrigerated air for 5 months (see above) plus 1 day at 22° C. and at an advanced ripeness stage (‘ripe’) were treated with rimsulfuron (1 mM) with 0.2% Tween 20 on day 0 of the study and for the next three consecutive days as above described. The fruit were evaluated daily for volatile emissions (see below) for eight days. On days 0, 2, 4, and 7, representative treated and untreated fruit were selected for tissue collection for metabolite analysis (see below). On day 7, samples of fruit peel were fed, as described above, with water or 20 mM isoleucine or α-keto-β-methylvalerate.
To simultaneously quantify branched-chain α-ketoacids and amino acids, 100 mg of ground frozen tissue was extracted in 2 mL of 1:1 acetonitrile: water containing 13 μM U-^13C, ^15N labeled amino acids (MilliporeSigma) as internal standard for 15 min in a 65° C. water bath. […]
One microliter of derivatized sample was analyzed with a GC (Agilent 6890) coupled to a time-of-flight MS (Pegasus II, LECO). […]
Compounds were identified by retention time and spectra of derivatized authenticated standards. Quantification was performed by comparison of the ratios of peak areas of metabolites to labeled internal standards. […] Calibration standards consisted of equimolar mixtures of the analyzed compounds that mimicked 15-0.15 nmoles of analyte in the final derivatized sample. […]

CCS(=O)(=O)c1cccnc1S(=O)(=O)NC(=O)Nc1nc(OC)cc(OC)n1 [rimsulfuron, N-((4,6-dimethoxypyrimidin-2-yl)aminocarbonyl)-3-(ethylsulfonyl)-2-pyridinesulfonamide]
isoleucine content, plateau, of control levels: 29.1% | α-keto-β-methylvalerate content, plateau, of control levels: 51.1%
